Laboratory results from patent EP0414175A2, “Use of xanthine derivatives to reduce nephrotoxicity” (HOECHST AKTIENGESELLSCHAFT, priority 1989, dated 1991).

Key:
[1] = system: Mäuse; experiment: Mortality of mice after repeated intravenous injections, 42-day observation; settings: 30 daily i.v. injections, 5 consecutive days per block, 4 blocks, 2 treatment-free days between, Amphotericin B 4 mg/kg, xanthine derivatives 20 mg/kg each, dissolved in 5 % aqueous glucose solution
[2] = Pathophysiological serum findings (nephrotoxicity markers) in mice after repeated intravenous treatment; format: in vivo, Mäuse; settings: serum of mice, treated 9 times intravenously within 11 days; pooled sera of 3 mice each; Pentoxifyllin 20 mg/kg, Amphotericin B 4 mg/kg
Procedure: Es wurden Mäuse im Verlauf von 11 Tagen 9 mal intravenös mit Pentoxifyllin (20 mg/kg), Amphotericin B (4 mg/kg) und Amphotericin B (4 mg/kg) in Kombination mit Pentoxifyllin (20 mg/kg) sowie mit einer Lösungsmittelkontrolle behandelt. Zur Beurteilung der Nephrotoxizität der jeweils verabreichten Substanzen wurden bei den Versuchstieren folgende Stoffe bestimmt: Creatinin: Eine gestörte Creatininclearance durch eine geschädigte Niere führt zu einem erhöhten Gehalt von Creatinin im Serum (Hypercreatininaemie) Harnstoff : Erhöhte Konzentrationen im Serum werden regelmäßig bei einer schweren Nierenfunktionsstörung beobachtet. Eine verminderte Harnstoffclearance führt zu einem erhöhten Gehalt im Serum Kalium: Da Kaliumionen bis zu 95 % durch die Nieren ausgeschieden werden, ist eine Hyperkaliaemie ein deutliches Zeichen für eine schwere Nierenfunktionsstörung. Tabelle 1

[3] = system: Nieren; experiment: Histopathological examination of kidneys of intravenously treated mice (PAS staining); format: in vivo, Mäuse; settings: mice treated i.v. over 11, 25, 39 or 53 days; Pentoxifyllin 20 mg/kg, Amphotericin B 4 mg/kg; 4 animals per time point; compared with glucose solvent control
Procedure: Weiterhin läßt sich die nephrotoxizitätssenkende Wirkung der Xanthinderivate durch histologische Untersuchung von Versuchstieren feststellen.
Dazu wurden […] Mäuse mit Glukose, Pentoxifyllin (20 mg/kg), Amphotericin B (4 mg/kg) oder der Kombination von Pentoxifyllin/Amphotericin B (20 mg/kg bzw. 4 mg/kg) über einen Zeitraum von 11, 25, 39 oder 53 Tagen intravenös behandelt.
Nach den angegebenen Versuchszeiten wurden je 4 Tiere getötet und Serum für serologische Untersuchungen entnommen. Die Nieren wurden in Bouin'schem Gemisch fixiert, nach üblicher histologischer Technik aufgearbeitet und PAS-gefärbt.

SMILES	Mortalitäten nach einer Beobachtungszeit von 42 Tagen [1]	Creatinin [2] [µmol/L]	Harnstoff [2]	Kalium [2]	histopathologische Untersuchungen der Nieren [3]
CC(=O)CCCCn1c(=O)c2c(ncn2C)n(C)c1=O [Pentoxifyllin, 3,7-Dimethyl-1-(5-oxohexyl)xanthin]	0 von 25 Mäusen gestorben				
CCOCn1cnc2c1c(=O)n(CCCCC(C)(C)O)c(=O)n2C [7-Ethoxymethyl-1-(5-hydroxy-5-methylhexyl)-3-methyl-xanthin]	0 von 25 Mäusen gestorben				
Cn1c(=O)n(CCCCC(C)(C)O)c(=O)c2[nH]cnc21 [1-(5-Hydroxy-5-methyl-hexyl)-3-methylxanthin]	0 von 25 Mäusen gestorben				
C[C@@H]1[C@H](O)[C@@H](C)/C=C/C=C/C=C/C=C/C=C/C=C/C=C/[C@H](O[C@@H]2O[C@H](C)[C@@H](O)[C@H](N)[C@@H]2O)C[C@@H]2O[C@](O)(C[C@@H](O)C[C@@H](O)[C@H](O)CC[C@@H](O)C[C@@H](O)CC(=O)O[C@H]1C)C[C@H](O)[C@H]2C(=O)O [Amphotericin B]	73 von 92 Mäusen gestorben	55	10,5 mmol/l	10,1 mmol/l	erhebliche Schäden des tubulären Apparats
